Data as given in ChEMBL document CHEMBL1148294, “Synthesis, in vitro evaluation, and antileishmanial activity of water-soluble prodrugs of buparvaquone” (J Med Chem, 2004).
≈ marks a conversion by molar mass, not a printed value.

How the values were obtained:
[1] = Ionization constant (pKa) was determined; format: physicochemical
[2] = Aqueous Solubility at pH 3; format: physicochemical
[3] = Aqueous Solubility at pH 5; format: physicochemical
[4] = Aqueous Solubility at pH 7.4; format: physicochemical
[5] = Distribution Coefficient at pH 3; format: physicochemical; conditions: octanol/water
Leishmania aethiopica [6] = assay: Effective dose was determined for extracellular promastigotes of Leishmania aethiopica Khartoum at 72 h; format: functional; conditions: read-out: ED50 (the source's name)
Leishmania major [7] = assay: Effective dose was determined for extracellular promastigotes of Leishmania major JISH118 at 72 h; format: functional; conditions: read-out: ED50 (the source's name)
Leishmania major [8] = assay: Effective dose was determined for intracellular amastigotes of Leishmania major JISH118 at 72 hr in infected macrophages at 34C (experiment 1); format: functional; conditions: read-out: ED50 (the source's name)
Leishmania panamensis [9] = assay: Effective dose was determined for extracellular promastigotes of Leishmania panamensis BOYNTON at 72 h; format: functional; conditions: read-out: ED50 (the source's name)
Leishmania panamensis [10] = assay: Effective dose was determined for intracellular amastigotes of Leishmania panamensis BOYNTON at 72 hr in infected macrophages at 34C (experiment 1); format: functional; conditions: read-out: ED50 (the source's name)
Leishmania mexicana [11] = assay: Effective dose was determined for extracellular promastigotes of Leishmania mexicana BEL21 at 72 h; format: functional; conditions: read-out: ED50 (the source's name)
Leishmania mexicana [12] = assay: Effective dose was determined for extracellular promastigotes of Leishmania mexicana LV4 at 72 h; format: functional; conditions: read-out: ED50 (the source's name)
Leishmania mexicana [13] = assay: Effective dose was determined for intracellular amastigotes of Leishmania mexicana LV4 at 72 hr in infected macrophages at 34C (experiment 1); format: functional; conditions: read-out: ED50 (the source's name)
Leishmania donovani [14] = assay: Effective dose was determined for extracellular promastigotes of Leishmania donovani L82 at 72 h; format: functional; conditions: read-out: ED50 (the source's name)
Leishmania donovani [15] = assay: Effective dose was determined for intracellular amastigotes of Leishmania donovani L82 at 72 hr in infected macrophages at 37 degree C (experiment 2); format: functional; conditions: read-out: ED50 (the source's name)
Leishmania amazonensis [16] = assay: Effective dose was determined for intracellular amastigotes of Leishmania amazonensis LV81 at 72 hr in infected macrophages at 34C (experiment 1); format: functional; conditions: read-out: ED50 (the source's name)
Leishmania aethiopica [17] = assay: Effective dose was determined for intracellular amastigotes of Leishmania aethiopica Khartoum at 72 hr in infected macrophages at 34C (experiment 1); format: functional; conditions: read-out: ED50 (the source's name)
Leishmania amazonensis [18] = assay: Effective dose was determined for extracellular promastigotes of Leishmania amazonensis LV81 at 72 h; format: functional; conditions: read-out: ED50 (the source's name)
Leishmania donovani [19] = assay: Effective dose was determined for intracellular amastigotes of Leishmania donovani L82 at 72 hr in infected macrophages at 37C (experiment 1); conditions: read-out: ED50 (the source's name)
Leishmania mexicana [20] = assay: Effective dose was determined for intracellular amastigotes of Leishmania mexicana LV4 at 72 hr in infected macrophages at 34 degree C (experiment 2); conditions: read-out: ED50 (the source's name)
Leishmania major [21] = assay: Effective dose was determined for intracellular amastigotes of Leishmania major JISH118 at 72 hr in infected macrophages at 34 degree C (experiment 2); conditions: read-out: ED50 (the source's name)
Leishmania panamensis [22] = assay: Effective dose was determined for intracellular amastigotes of Leishmania panamensis BOYNTON at 72 h in infected macrophages at 34 degree C (experiment 2); conditions: read-out: ED50 (the source's name)
Leishmania aethiopica [23] = assay: Effective dose was determined for intracellular amastigotes of Leishmania aethiopica Khartoum at 72 hr in infected macrophages at 34 degree C (experiment 2); conditions: read-out: ED50 (the source's name)
[24] = Half-life for rate of hydrolysis was determined in human skin homogenate (pH 7.4); format: ADME, tissue-based, Zone of skin
[25] = Distribution Coefficient at pH 5; format: physicochemical; conditions: octanol/water
[26] = Half-life for rate of hydrolysis was determined at pH 3; format: ADME; conditions: buffer
[27] = Half-life for rate of hydrolysis was determined at pH 5; format: ADME; conditions: buffer
[28] = Half-life for rate of hydrolysis was determined at pH 7.4; format: ADME; conditions: buffer
[29] = Distribution Coefficient at pH 7.4; format: physicochemical; conditions: octanol/water
alkaline phosphatase = assay: Half-life for rate of hydrolysis was determined in alkaline phosphatase solution (pH 7.4); format: ADME

pKa [1] | solubility [2] | solubility [3] | solubility [4] | logD [5] | EC50 (Leishmania aethiopica [6]) | EC50 (Leishmania major [7]) | EC50 (Leishmania major [8]) | EC50 (Leishmania panamensis [9]) | EC50 (Leishmania panamensis [10]) | EC50 (Leishmania mexicana [11]) | EC50 (Leishmania mexicana [12]) | EC50 (Leishmania mexicana [13]) | EC50 (Leishmania donovani [14]) | EC50 (Leishmania donovani [15]) | EC50 (Leishmania amazonensis [16]) | EC50 (Leishmania aethiopica [17]) | EC50 (Leishmania amazonensis [18]) | EC50 (Leishmania donovani [19]) | EC50 (Leishmania mexicana [20]) | Compound | further results
5.7 | < 0.03 µg/mL | < 0.03 µg/mL | 0.03 µg/mL (≈ 9.19e-05 mM) | 7.02 | 13 nM | 1 nM | 434 nM | 42 nM | 370 nM | 2 nM | 4 nM | 1440 nM | 6 nM | 430 nM | 5500 nM | 633 nM | 4 nM | 480 nM | 1250 nM | CC(C)(C)[C@H]1CC[C@H](CC2=C(O)C(=O)c3ccccc3C2=O)CC1 [BUPARVAQUONE] | EC50 (Leishmania major [21]): 1800 nM; EC50 (Leishmania panamensis [22]): 923 nM; EC50 (Leishmania aethiopica [23]): 3640 nM
2.28 | > 3500 µg/mL | > 3500 µg/mL | > 3500 µg/mL | 2.96 | 57 nM | 12 nM | 810 nM | 120 nM | < 1120 nM | 5 nM | 10 nM | 2580 nM | 3 nM | 1220 nM | 8810 nM | 1660 nM | 7 nM | 1250 nM | 2510 nM | CC(C)(C)C1CCC(CC2=C(OCOP(=O)(O)O)C(=O)c3ccccc3C2=O)CC1 (stereo not drawn) | half-life [24]: 0.175 h; logD [25]: 1.83; half-life [26]: 97 h; half-life [27]: 8 h; half-life [28]: 0.5 h; logD [29]: 1.16; half-life (alkaline phosphatase): 3.8 min; EC50 (Leishmania major [21]): 1890 nM; EC50 (Leishmania panamensis [22]): 1190 nM; EC50 (Leishmania aethiopica [23]): 3990 nM
2.68 | > 3500 µg/mL | > 3500 µg/mL | > 3500 µg/mL | 1.87 | 122 nM | 64 nM | 1370 nM | 124 nM | 555 nM | 24 nM | 39 nM | 7030 nM | 9 nM | 4310 nM | 15700 nM | 2330 nM | 24 nM | 4120 nM | 4030 nM | CC(C)(C)C1CCC(CC2=C(OP(=O)(O)O)C(=O)c3ccccc3C2=O)CC1 (stereo not drawn) | half-life [24]: 8.7 h; logD [25]: 1.27; half-life [26]: 72 h; half-life [27]: 50 h; half-life [28]: 17 h; logD ([29]; read-out: logD): 0.47; half-life (alkaline phosphatase): 1.2 min; EC50 (Leishmania major [21]): 6270 nM; EC50 (Leishmania panamensis [22]): 2060 nM; EC50 (Leishmania aethiopica [23]): 7350 nM
